Laboratory results taken from patent US20250127824A1, “BACTERIAL STRAIN USED IN THE PREVENTION AND/OR TREATMENT OF INFLAMMATORY PATHOLOGIES” (VERB BIOTICS, priority 2021, published 2025).

Key:
[1] = test system: HT-29 colon adenocarcinoma line; experiment: IL-8 secretion by TNF-α-stimulated HT-29 cells, supernatant with or without 5-ASA or Budesonide; assay type: cell-based; conditions: TNF-α 5 ng/ml, 6 h, 10% supernatant
Description: The HT-29 cells (ECACC) were inoculated into 24-well plates at 3×10^5 cells per well in McCoy's 5A (Gibco) medium supplemented with 10% fetal calf serum (FCS, Gibco) and incubated at 37° C./5% […] for 24 h. The cells were washed with PBS-1× (Gibco) and cultivated for an additional 24 h in McCoy's 5A medium at 2% FCS. The cells were then stimulated for 6 hours with 5 ng/ml of TNF-α in the presence of 10% of supernatant in stationary phase of DSM 33715 or of bacterial culture medium as control (ctrl), whether or not in the presence of anti-inflammatory agents. 5-ASA (10 mM) and budesonide (20 μM) are molecules used in the treatment of inflammatory diseases, such as ulcerative colitis and Crohn's disease. After 6 h, the cell culture supernatants were collected and stored at −80° C. until the […] was quantified by ELISA. The IL-8 assay was carried out by BioLegend specific ELISA, according to the manufacturer's instructions. The absorbance at 460 nm was read using the FluoStar Omega microplate reader of BMG Labtech. Statistics: Sidak's multiple comparisons test. * p<0.05, ** p<0.01, *** […], **** p<0.0001. […]

JAK/STAT pathway = experiment: JAK/STAT luciferase reporter in IFN-γ-stimulated HT-29 cells, supernatant with or without Tofacitinib; assay type: cell-based; conditions: 10% supernatant, Tofacitinib 1 μM, 6 h
Description: HT-29 cells at a density of 3×10^5 cells/well, in 24-well plate, were transfected according to a reverse-transfection protocol, with 200 ng of pGL4 luc2P GAS-RE (IFN-γ-dependent JAK/STAT signaling pathway) and 10 ng of pRL-TK vector (Promega), using X-tremeGENE HP DNA transfection reagent with a 3:1 ratio (Roche). To summarize, the reactive/DNA transfection complexes were prepared in a final volume of 50 μl of McCoy's 5A without serum and without antibiotic, the appropriate amount of each plasmid was added and homogenized, and then the transfection agent was added (3:1). The transfection complexes were carefully mixed and incubated at room temperature for 15 minutes. After incubation, the transfection complexes were added to the freshly resuspended HT-29 cells at the appropriate density in McCoy's 5A medium supplemented with 10% FCS, and then the cell/transfection complex mixtures were gently homogenized and placed on plates. The plates were incubated for 24 h in a humid atmosphere at 5% C02 and the medium was then replaced with medium at 2% FCS for 12 h, after washing with PBS IX. […]
The activity of the luciferase Firefly was read. Then 50 μl reagent Stop&Glo was added and the measurement of the Renilla activity was read with the FLUOstar Omega plate reader (BMG Labtech). […]

Nc1ccc(O)c(C(=O)O)c1 [5-ASA]
secretion of IL-8 reduced relative to the control (Panel A) ([1]; 5-ASA 10 mM): 38%

CCCC1O[C@@H]2C[C@H]3[C@@H]4CCC5=CC(=O)C=C[C@]5(C)[C@H]4[C@@H](O)C[C@]3(C)[C@]2(C(=O)CO)O1 (stereo partly drawn) [Budesonide]
secretion of IL-8 reduced relative to the control (Panel B) ([1]; budesonide 20 μM): 38%

C[C@@H]1CCN(C(=O)CC#N)C[C@@H]1N(C)c1ncnc2[nH]ccc12 [Tofacitinib]
decrease in the IFN-γ-induced activation of the JAK/STAT pathway (JAK/STAT pathway): 49%
